# Entries after “also recorded” stand apart in the source; their conditions may differ. Marks after values point to notes of the source that are not given here.
# B1: catalase: catalase (CAT), enzyme that can convert H2O2 to H2O (protein, UniProt P00432 2-527, looked up)
# Catalase: ADNRDPASDQMKHWKEQRAAQKPDVLTTGGGNPVGDKLNSLTVGPRGPLLVQDVVFTDEMAHFDRERIPERVVHAKGAGAFGYFEVTHDITRYSKAKVFEHIGKRTPIAVRFSTVAGESGSADTVRDPRGFAVKFYTEDGNWDLVGNNTPIFFIRDALLFPSFIHSQKRNPQTHLKDPDMVWDFWSLRPESLHQVSFLFSDRGIPDGHRHMNGYGSHTFKLVNANGEAVYCKFHYKTDQGIKNLSVEDAARLAHEDPDYGLRDLFNAIATGNYPSWTLYIQVMTFSEAEIFPFNPFDLTKVWPHGDYPLIPVGKLVLNRNPVNYFAEVEQLAFDPSNMPPGIEPSPDKMLQGRLFAYPDTHRHRLGPNYLQIPVNCPYRARVANYQRDGPMCMMDNQGGAPNYYPNSFSAPEHQPSALEHRTHFSGDVQRFNSANDDNVTQVRTFYLKVLNEEQRKRLCENIAGHLKDAQLFIQKKAVKNFSDVHPEYGSRIQALLDKYNEEKPKNAVHTYVQHGSHLSAREKANL
# Key:
# [1] = tested on: Chinese hamster V79 cells; experiment: Protection of cells exposed to H2O2 under hypoxic conditions; format: cell-based; details: 600 μM H2O2, 1 h, 37° C.
# Procedure: Some studies required exposure to H2O2 under hypoxic conditions. For these studies, cells dispersed in 1.8 ml of medium were plated into specially designed glass flasks (Russo et al, Radiat. Res., 103, 232-239, 1985). The flasks were sealed with soft rubber stoppers, and 19-gauge needles were pushed through to act as entrance and exit ports for a humidified gas mixture of 95% nitrogen/5% CO2 (Matheson Gas Products). […] Stoppered flasks were connected in series and mounted on a reciprocating platform and gassed at 37° C. for 45 min. […] After 45 min of gassing, the hypoxic H2O2 solution was added to the cell monolayer culture. The cells were exposed to H2O2 for 1 h under hypoxic conditions. N2 gas flow was maintained during the H2O2 exposure. In parallel flasks, DF and CHD were added as described above, and were present during the entire gassing procedure. Following treatment, cell survival was assessed as described above.
# [2] = tested on: Chinese hamster V79 cells; experiment: Protection of cells exposed to HX/XO, clonogenic survival; format: cell-based; details: for cell survival / protection from HX/XO: 0.05 U/ml XO + 0.5 mM HX, 37° C., 5 mM nitroxide, 100 U/ml catalase, SOD, 500 μM DF preincubated 2 h
# Procedure: (§1) Chinese hamster V79 cells were grown in F12 medium supplemented with 10% fetal calf serum, penicillin, and streptomycin. Survival was assessed in all studies by the clonogenic assay. The plating efficiency range between 80-90%. Stock cultures of exponentially growing cells were trypsinized, rinsed, and plated (5×10^5 cells/dish) into a number of 100 mm petri dishes and incubated 16 h at 37° C. prior to experimental protocols. Cells were exposed for 1 h at 37° C. to either 0.5 mM hypoxanthine (HX)+0.05 U/ml of xanthine oxidase (XO) for varying lengths of time, or to H2O2 at different concentrations. To assess possible modulation in cytotoxicity, catalase, 100 U/ml; SOD, 100 μg/ml; DF, 500 μM; and 5 mM of each of the nitroxides from Table 1 were added to parallel cultures. CHD was prepared in a stock solution in ethanol and diluted into medium such that the final concentration was 5 mM. […] TEMPOL is water soluble and was prepared directly in tissue culture medium. […] DF was added either 2 h prior to or during treatment while the other agents were present only during HX/XO or H2O2 treatment. Following treatment, cells were rinsed, trypsinized, counted, and plated for macroscopic colony formation. For each dose determination cells were plated in triplicate and the experiments were repeated a minimum of two times. Plates were incubated 7 days, after which colonies were fixed with methanol/acetic acid, stained with crystal violet, and counted. Colonies containing >50 cells were scored. Error bars represent S.D. of the mean and are shown when larger than the symbol.
# [3] = EPR signal of nitroxides exposed to O2 flux formed by HX/XO (spin-loss); format: biochemical; details: for Steady state EPR signal (%): % from total R′RNO + R′RNOH after exposure to 5 mM HX + 0.03 U/ml XO in air-saturated PBS pH 7.2; for effect of O2 on the EPR signal: exposure to O2 flux formed by HX/XO
# Procedure: For EPR experiments, samples (0.05-0.1 ml) either of solutions of chemicals or cell suspensions were drawn by a syringe into a gas-permeable teflon capillary of 0.8 mm inner diameter, 0.05 mm wall thickness (Zeus Industrial Products, Inc. Raritan, N.J.). Each capillary was folded twice, inserted into a narrow quartz tube which was open at both ends (2.5 mm ID), and then placed horizontally into the EPR cavity. During the experiments, gases of desired compositions were blown around the sample without having to disturb the alignment of the tube within the EPR cavity. EPR spectra were recorded in a Varian E4 (or E9) X-band spectrometer, with field set at 3357 G, modulation frequency of 100 KHz, modulation amplitude of 1 G and non-saturating microwave power. The EPR spectrometer was interfaced to an IBM-PC through an analog-to-digital converter and a data translation hardware (DT2801) and the spectra were digitized using commercial acquisition software, enabling subtraction of background signals. To study the kinetics of the spin-loss, the spectra were deliberately overmodulated, and the magnetic field was kept constant while the intensity of the EPR signal was followed.
# [4] = Water/octanol partition of nitroxides, ratio determined by EPR; format: physicochemical; details: Octanol:water
# Excerpt: CHD, 2-spirocyclohexane doxyl(2-spirocyclohexane-5,5-dimethyl-3-oxazolidinoxyl) and OXANO, 2-ethyl-2,5,5-trimethyl-3-oxazolidine-1-oxyl as well as other nitroxides were synthesized as described by Keana et al (J. Am. Chem. Soc., 89, 3055-3056, 1967) For the general synthesis of the cyclic amines, the appropriate starting ketone was reacted with 2-amino-2-methyl-1-propanol in benzene in the presence of catalytic amounts of p-toluene sulfonic acid. As the cyclic structure formed, water was eliminated. The volume of water collected in a Dean Stark apparatus was monitored and used to gauge the reaction progress. The amines thus produced were purified through fractional distillation under reduced pressure, characterized by 220 MHz ^1H NMR, IR, UV, either EI or CI mass spectroscopy, and subsequently oxidized to the corresponding nitroxides using m-chloroperbenzoic acid. The nitroxides were purified by silica flash chromatography (Still et al, J. Org. Chem., 43, 2923-2925, 1978). Water/octanol ratios were determined by placing a quantity of nitroxide in water+octanol within a separatory funnel. The mixture was shaken thoroughly and allowed to separate for 15 min, whereupon aliquots were taken from both fractions and the ratio of nitroxide distribution was determined using electron paramagnetic resonance (EPR) spectroscopy, by comparing the intensities of signal obtained under N2.
# [5] = SOD-inhibitable ferricytochrome c reduction assay, rate constants of reaction with O2 (SOD-like activity); format: biochemical; details: low ionic strength (10 mM HEPES), pH 7.0, 22° C.
# Excerpt: As a further check, the reaction of representatives of both 5- and 6-membered cyclic nitroxides with O2 was studied. The SOD-inhibitable ferricytochrome c reduction assay (Fridovich, Handbook of Methods for Oxygen Radical Research, 213-215, 1985) was used to determine rate constants of reaction with O2. […] The reaction was started by adding 0.01 U/ml XO and the rate of ferricytochrome c reduction, in the absence (V) and in the presence (v) of various nitroxides, was spectrophotometrically followed at 550 nm. Both reference and sample cuvettes contained all the reagents, with the reference cuvette containing 100 units/ml SOD, thereby eliminating spurious reactions from interfering with the determination of rate constants. Data were analyzed by plotting V/v as a function of [nitroxide] and k1 was calculated, knowing kCytC+superoxide, according to:
# (V/v)−1=k1x[nitroxide]/kCytC+superoxidex[Cyt−c^III].
# [6] = tested on: Chinese hamster V79 cells; experiment: Protection of cells exposed to H2O2, clonogenic survival; format: cell-based; details: H2O2 for 1 h, 37° C., full medium; 5 mM nitroxide; 100 U/ml catalase; 100 μg/ml SOD; 500 μM DF preincubated 2 h
# Procedure: as §1, with “For each dose determination cells were plated in triplicate and the experiments were repeated a minimum of two times.” left out, “Error bars represent S.D. of the mean and are shown when larger than the symbol.” left out
# [7] = tested on: DNA-Fe(II); experiment: Reaction of nitroxide with DNA-Fe(II), EPR spin-loss and OD353nm; format: biochemical, Salmon; details: TEMPOL hypoxically mixed with DNA-Fe(II)
# Procedure: All solutions always contained 0.1 mg/ml Salmon DNA. The appearance of DNA-Fe(III) was spectrophotometrically monitored at 353 nm, whereas the spin-loss of CHD was monitored by following its EPR signal. To study the time-dependence of ΔOD353nm (∘), 1 mM CHD was mixed with 0.1 mM Fe(II). To follow the spin-loss of CHD (□), 1 mM Fe(II) was mixed with 0.1 mM CHD.
# It was also questioned whether the aerobic and hypoxic protection by CHD to H2O2 exposure was a result of CHD directly accepting electrons from ferrous ions, thereby preventing generation of .OH. Because cellular iron is chelated, the possible reaction of nitroxide with chelated iron(II) was examined by repeating the experiment in the presence of DNA. To study the possibility of nitroxide-induced oxidation of transition metals, CHD was hypoxically mixed with iron(II) in the presence of 0.1 mg/ml Salmon DNA. Consequently, DNA-Fe(III) was formed and the nitroxide EPR signal disappeared. The reaction kinetics were investigated by maintaining either CHD or Fe(II) in excess while the absorbance due to DNA-Fe(III) and the nitroxide spin-loss were monitored respectively (FIG. 6). Both the decay of the EPR signal and the appearance of the OD353nm obeyed pseudo 1st order kinetics from which the 2nd order reaction rate constant was calculated as 44 M^−1s^−1 or 33 M^−1s^−1 using the data from EPR or optical absorption, respectively.
# [8] = tested on: kidneys of mice; experiment: Post-irradiation protection after local kidney irradiation, weight gain and kidney histology; format: in vivo; details: 28 weeks
# Procedure: This hypothesis has been tested in experiments where both kidneys of mice were locally irradiated with single, acute doses of radiation. […] At 28 weeks after irradiation, the animals were sacrificed, and histological analysis was performed on their kidneys to assess damage.
# [9] = tested on: V79 cells; experiment: Cytotoxicity of the agents alone, clonogenic assay; format: cell-based, Chinese hamster; details: concentrations used: catalase 100 U/ml; SOD 100 μg/ml; DF 500 μM; nitroxides 5 mM
# Procedure: For subsequent studies, the most lipophilic nitroxide, CHD, and the most hydrophilic one, TEMPOL, were chosen.
# Chinese hamster V79 cells were grown in F12 medium supplemented with 10% fetal calf serum, penicillin, and streptomycin. Survival was assessed in all studies by the clonogenic assay. The plating efficiency range between 80-90%. Stock cultures of exponentially growing cells were trypsinized, rinsed, and plated (5×10^5 cells/dish) into a number of 100 mm petri dishes and incubated 16 h at 37° C. prior to experimental protocols. Cells were exposed for 1 h at 37° C. to either 0.5 mM hypoxanthine (HX)+0.05 U/ml of xanthine oxidase (XO) for varying lengths of time, or to H2O2 at different concentrations. To assess possible modulation in cytotoxicity, catalase, 100 U/ml; SOD, 100 μg/ml; DF, 500 μM; and 5 mM of each of the nitroxides from Table 1 were added to parallel cultures. CHD was prepared in a stock solution in ethanol and diluted into medium such that the final concentration was 5 mM. […] TEMPOL is water soluble and was prepared directly in tissue culture medium. […] Following treatment, cells were rinsed, trypsinized, counted, and plated for macroscopic colony formation. […] Plates were incubated 7 days, after which colonies were fixed with methanol/acetic acid, stained with crystal violet, and counted. Colonies containing >50 cells were scored. […]
# [10] = tested on: C3H mice; experiment: Nitroxide-induced weight loss, chronic oral administration in drinking water; format: in vivo; details: 10 mg per ml in drinking water
# Excerpt: Thus, nitroxide given over extended periods appears to cause weight loss in animals.
# [11] = tested on: C3H mice; experiment: Protection of mice against whole body radiation, 30 day survival; format: in vivo
# Procedure: Controls were given saline.
# Controls were given saline. Survival was recorded 30 days after exposure to radiation. The LD50(30) refers to that dose of radiation at which 50% of the mice survived 30 days after exposure.
# [12] = tested on: Chinese hamster V79 cells; experiment: In vitro protection against ionizing radiation, clonogenic survival; format: cell-based; details: 100 mM TEMPOL 10 min prior to irradiation
# [13] = comparison value for native SOD; cited from earlier work
molecule,measurement,setting,value
"CC(=O)N(O)CCCCCNC(=O)CCC(=O)N(O)CCCCCNC(=O)CCC(=O)N(O)CCCCCN [DF, Desferrioxamine, reference compound]",protection against H2O2 cytotoxicity under hypoxic conditions,[1],complete protection
same,cell survival / protection from HX/XO,[2],complete protection
same,"protection from HX/XO, DF added simultaneously",[2]; DF addition simultaneously with HX/XO (data not shown),only partial protection
"CCC1(C)OC(C)(C)CN1[O] (centres unmarked) [OXANO, 2-ethyl-2,5,5-trimethyl-3-oxazolidine-1-oxyl]",Steady state EPR signal (%),[3],50%
same,Partition coefficient,[4],10
same,kR′RNO + O2,[5],1.1 × 10^3 M − 1^s − 1
"CC1(C)CCCC(C)(C)N1[O] [TEMPO, 2,2,6,6-tetramethylpiperidine-1-oxyl]",Steady state EPR signal (%),[3],100%
same,effect of O2 on the EPR signal,[3],no effect
same,kR′RNO + O2,[5],1.3 × 10^6 M − 1^s − 1
"CC1(C)CC(O)CC(C)(C)N1[O] [TEMPOL, 4-hydroxy-2,2,6,6-tetramethylpiperidine-1-oxyl]",protection against H2O2 cytotoxicity,[6],fully protected; also recorded: complete protection
same,2nd order reaction rate constant with DNA-Fe(II),[7],40 M⁻¹ s⁻¹
same,Steady state EPR signal (%),[3],100%
same,effect of O2 on the EPR signal,[3],no effect
same,"kidney histology, TEMPOL alone",[8]; no radiation,identical to a section from a kidney of a control animal
same,"kidney histology, 24 Gy plus TEMPOL","[8]; single dose 24 Gy, oral TEMPOL two weeks post-irradiation",protection against glomerular sclerosis and tubular cell loss
same,cytotoxicity of agent alone,[9],"Neither catalase, SOD, DF, CHD, nor TEMPOL were cytotoxic alone"
same,toxicity on chronic oral administration,[10]; >3 weeks,no apparent toxicity
same,reduction of weight compared to controls,[10]; chronic oral administration (>3 weeks),12.5%
same,toxicity in irradiated mice,[11]; 275 mg/kg intraperitoneally,no toxicity
same,increase of LD50(30),"[11]; 275 mg/kg intraperitoneally 10 min prior to whole body radiation 3 Gy to 13 Gy, versus saline controls",approximately 25%
same,extent of protection against irradiation,[12],approximately 2.5 fold
same,cell survival / protection from HX/XO,[2],fully protected
same,kR′RNO + O2,[5],3.4 × 10^5 M − 1^s − 1
"SOD: superoxide dismutase (SOD), obtained from Sigma",kcat of native SOD,[13],2.3e+09 M⁻¹ s⁻¹
same,cell survival / protection from HX/XO,[2],not altered
B1,cell survival / protection from HX/XO,[2],complete protection

# Reference: patent publication US6605619B1, “Nitroxides as protectors against oxidatives stress” (The United States of America as represented by the …, priority 1992, dated 2003)
